In patent publication US10118925B2, “Imidazo[4,5-c] ring compounds containing substituted guanidine groups” (3M INNOVATIVE PROPERTIES COMPANY, priority 2015, dated 2018):
Counter-ions that a name gives are not always drawn.

Assays:
[1] = tested on: Human peripheral blood mononuclear cells (PBMC); assay: Cytokine induction in human cells (PBMC): IFN-gamma by multiplex bead assay; assay type: cell-based; settings: 21-24 hrs, lowest concentration inducing cytokine at least 2× negative control, tested 0.0001-10 micromolar
Experimental: (§1) Whole blood was obtained from healthy human donors and collected by venipuncture into vacutainer tubes or syringes containing EDTA. Human peripheral blood mononuclear cells (PBMC) were purified from the whole blood by density gradient centrifugation. Histopaque 1077 (15 mL, Sigma, St. Louis, Mo.) was transferred to 6×50 mL sterile polypropylene conical tubes. The Histopaque was overlayed with 15-25 mL of blood diluted 1:2 in Hank's Balanced Salts Solution (HBSS) (Gibco, Life Technology, Grand Island N.Y.). The tubes were then centrifuged at 1370 rpm for 30 minutes at 20° C., with no brake (400×g, GH 3.8 A Rotor).
(§2) The interface (buffy coat) containing the PBMC was collected and placed in a new sterile 50 mL conical polypropylene centrifuge tube. The PBMC were mixed with an equal volume of HBSS (about 20 mL from the interface and about 20 mL of HBSS), and then centrifuged at 1090 rpm, 10 min, 20° C., with brake (270×g, GH 3.8 A Rotor). After completing centrifugation, the cells were resuspended in 2-3 mL ACK Red blood cell lysis buffer (ammonium chloride potassium solution, Gibco, Life Technology) and incubated for 2-5 minutes at 20° C. […]
(§3) The number of viable cells were determined by counting with a Miltenyi FACS instrument (Miltenyi Biotec Inc., San Diego, Calif.) or by using a hemacytometer. […] Ten microliters of the diluted cells were then applied to the hemacytometer, and the number of viable PBMC were determined by microscopy. […]
(§4) IFN-alpha cytokine levels (pg/mL) were measured by ELISA (human IFN-α, pan specific, Mabtech, Cinncinnati, Ohio), IFN-gamma, TNF-alpha, and IP-10 cytokine levels (pg/mL) were measured by multiplex bead assay (magnetic beads, R & D Systems Minneapolis, Minn.) according to the manufacturer's instructions.
(§5) Specifically, the minimum effective concentration of each compound (micromolar) was determined as the lowest concentration of the compound that induced a measured cytokine response at a level ([…]) that was at least 2× greater than that observed with the negative control wells.

[2] = tested on: Human peripheral blood mononuclear cells (PBMC); assay: Cytokine induction in human cells (PBMC): IFN-alpha by ELISA; assay type: cell-based; settings: 21-24 hrs, lowest concentration inducing cytokine at least 2× negative control, tested 0.0001-10 micromolar
Experimental: as §1, §2, §3, §4, §5

[3] = tested on: Human peripheral blood mononuclear cells (PBMC); assay: Cytokine induction in human cells (PBMC): TNF-alpha by multiplex bead assay; assay type: cell-based; settings: 21-24 hrs, lowest concentration inducing cytokine at least 2× negative control, tested 0.0001-10 micromolar
Experimental: as §1, §2, §3, §4, §5

[4] = tested on: Human peripheral blood mononuclear cells (PBMC); assay: Cytokine induction in human cells (PBMC): IP-10 by multiplex bead assay; assay type: cell-based; settings: 21-24 hrs, lowest concentration inducing cytokine at least 2× negative control, tested 0.0001-10 micromolar
Experimental: as §1, §2, §3, §4, §5

melting point | SMILES | MEC to Induce Cytokine IFN-gamma [1] | MEC to Induce Cytokine IFN-alpha [2] | MEC to Induce Cytokine TNF-alpha [3] | MEC to Induce Cytokine IP-10 [4]
– | CCCCc1nc2c(N)nc3ccccc3c2n1CCCCN/C(=N/C(C)C)NC(C)C [Example 2, 1-[4-(4-amino-2-butyl-imidazo[4,5-c]quinolin-1-yl)butyl]-2,3-diisopropyl-guanidine Dihydrochloride] | 1 µM | 0.1 µM | 10 µM | 0.1 µM
210 to 216 °C | CCCCc1nc2c(N)nc3ccccc3c2n1CCCCNC(=N)NC(C)C (as salt: hydrochloride) [Example 1, 1-[4-(4-amino-2-butyl-imidazo[4,5-c]quinolin-1-yl)butyl]-3-isopropyl-guanidine dihydrochloride] | – | – | – | –
– | CCCCc1nc2c(N)nc3ccccc3c2n1CCCCNC(=N)NC(C)C [Example 1, 1-[4-(4-amino-2-butyl-imidazo[4,5-c]quinolin-1-yl)butyl]-3-isopropyl-guanidine dihydrochloride] | 0.1 µM | 0.01 µM | 0.1 µM | 0.001 µM
172 to 174 °C | CCCCc1nc2c(N)nc3ccccc3c2n1CCCCN/C(=N/C(C)C)NC(C)C (as salt: hydrochloride) [Example 2, 1-[4-(4-amino-2-butyl-imidazo[4,5-c]quinolin-1-yl)butyl]-2,3-diisopropyl-guanidine Dihydrochloride] | – | – | – | –
– | CC(C)Cn1cnc2c(N)nc3ccccc3c21 [imiquimod, reference compound] | 10 µM | 10 µM | 10 µM | 10 µM
